Earlier results in patent US10858526B2, “Water-based ink composition for ink jet recording and coloring material liquid” (Seiko Epson Corporation, priority 2017, dated 2020).

Details: water-soluble organic solvent

| water-octanol partition coefficient (log P) | SMILES |
| --- | --- |
| 0.28 | CCCC(O)CCO (centres unmarked) [1,3-hexanediol] |
| 0.56 | CCCCOCCOCCO [butyl diglycol] |
